Measurements: patent US20210395313A1, “PEPTIDE PAC1 ANTAGONISTS” (AMGEN INC., priority 2017, published 2021)
Where a SMILES comes first, the peptide text is derived from it. Bridges are numbered along the chain shown (N, C = ends). Where no end group is shown, it is not given here.

Biological target: T1, rat PAC1 receptor (Rattus norvegicus, UniProt P32215)
T1 construct: SHSY-5Y (human neuroblastoma cell line) and RG-2 (rat glioma cell line) cells endogenously express human and rat PAC1 receptors, respectively; endogenous in cells; host or cells: RG-2 rat glioma cells
T1 sequence (P32215 20-523): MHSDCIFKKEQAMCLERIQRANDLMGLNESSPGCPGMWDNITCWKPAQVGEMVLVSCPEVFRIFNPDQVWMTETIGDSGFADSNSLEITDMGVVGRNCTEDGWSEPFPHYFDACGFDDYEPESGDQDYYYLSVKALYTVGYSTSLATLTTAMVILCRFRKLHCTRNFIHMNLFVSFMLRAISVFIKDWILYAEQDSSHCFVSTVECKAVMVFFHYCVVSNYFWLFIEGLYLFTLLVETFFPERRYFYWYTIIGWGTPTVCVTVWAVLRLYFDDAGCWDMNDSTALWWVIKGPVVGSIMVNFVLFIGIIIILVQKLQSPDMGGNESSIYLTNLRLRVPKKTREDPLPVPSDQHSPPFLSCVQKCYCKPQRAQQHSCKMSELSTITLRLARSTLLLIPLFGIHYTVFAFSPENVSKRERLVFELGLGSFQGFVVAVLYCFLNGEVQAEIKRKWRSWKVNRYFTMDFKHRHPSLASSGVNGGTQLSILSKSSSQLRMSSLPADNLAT
Assay: LANCE Ultra cAMP accumulation antagonist assay in RG-2 cells;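 also: RG-2 rat glioma cells endogenously expressing PAC1, test peptide preincubated 30 min, then PAC1 agonist added at its EC80 for 15 min, cAMP accumulation read by LANCE Ultra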
Assay type: cell-based

| Compound | IC50 [nM] |
| --- | --- |
| CC[C@H](C)[C@@H]1NC(=O)[C@H](C)NC(=O)[C@H](CCCCN)NC(=O)[C@H](CCCNC(=N)N)NC(=O)[C@H](Cc2ccccc2)NC(=O)[C@H](CCC(N)=O)NC(=O)[C@H](CO)NC(=O)[C@H]([C@@H](C)O)NC(=O)[C@H](C)NC(=O)[C@H](CC(=O)O)NC(=O)[C@@H](N)CSSC[C@@H](C(=O)N[C@@H](Cc2c[nH]cn2)C(=O)O)NC(=O)[C@H](C)NC(=O)[C@H](CCCCN)NC(=O)[C@H](Cc2c[nH]c3ccccc23)NC(=O)[C@H](CCC(=O)O)NC(=O)[C@H](CCCCN)NC(=O)[C@H](CCCCN)NC(=O)[C@H](CCCCN)NC(=O)[C@H](CCC(N)=O)NC(=O)[C@H](CCCCN)NC(=O)[C@H](CCSC)NC(=O)[C@H](CO)NC(=O)[C@H](C)NC(=O)[C@H](CCCCN)NC(=O)[C@H](Cc2ccccc2)NC(=O)[C@H](C)NC(=O)[C@H](CO)NC(=O)[C@H](CC(=O)O)NC(=O)[C@H](CC(=O)O)NC1=O [compound 442] (H-CDATSQFRKAIDDSAFKASMKQKKKEWKACH-OH; disulfide 1-30) | > 100 |
| CC[C@H](C)[C@H](NC(=O)[C@H](C)NC(=O)[C@H](CCCCN)NC(=O)[C@H](CCCNC(=N)N)NC(=O)[C@H](Cc1ccccc1)NC(=O)[C@H](CCC(N)=O)NC(=O)[C@@H]1CSSC[C@H](N)C(=O)N[C@@H](CC(=O)O)C(=O)N[C@@H](C)C(=O)N[C@@H]([C@@H](C)O)C(=O)N1)C(=O)N[C@@H](CC(=O)O)C(=O)N[C@@H](CC(=O)O)C(=O)N[C@H]1CSSC[C@@H](C(=O)N[C@@H](CCSC)C(=O)N[C@@H](CCCCN)C(=O)N[C@@H](CCC(N)=O)C(=O)N[C@@H](CCCCN)C(=O)N[C@@H](CCCCN)C(=O)N[C@@H](CCCCN)C(=O)N[C@@H](CCC(=O)O)C(=O)N[C@@H](Cc2c[nH]c3ccccc23)C(=O)N[C@@H](CCCCN)C(=O)N[C@@H](C)C(=O)NCC(=O)N[C@@H](Cc2c[nH]cn2)C(=O)O)NC(=O)[C@H](C)NC(=O)[C@H](CCCCN)NC(=O)[C@H](Cc2ccccc2)NC(=O)[C@H](C)NC(=O)[C@H](C)NC1=O [compound 443] (H-CDATCQFRKAIDDCAAFKACMKQKKKEWKAGH-OH; disulfide 1-5, 14-20) | > 100 |
| CC[C@H](C)[C@H](NC(=O)[C@H](C)NC(=O)[C@H](CCCCN)NC(=O)[C@H](CCCNC(=N)N)NC(=O)[C@H](Cc1ccccc1)NC(=O)[C@H](CCC(N)=O)NC(=O)[C@@H]1CSSC[C@H](N)C(=O)N[C@@H](CC(=O)O)C(=O)N[C@@H](C)C(=O)N[C@@H]([C@@H](C)O)C(=O)N1)C(=O)N[C@@H](CC(=O)O)C(=O)N[C@@H](CC(=O)O)C(=O)N[C@H]1CSSC[C@@H](C(=O)N[C@@H](CCSC)C(=O)N[C@@H](CCCCN)C(=O)N[C@@H](CCC(N)=O)C(=O)N[C@@H](CCCCN)C(=O)N[C@@H](CCCCN)C(=O)N[C@@H](CCCCN)C(=O)N[C@@H](CCC(=O)O)C(=O)N[C@@H](Cc2c[nH]c3ccccc23)C(=O)N[C@@H](CCCCN)C(=O)N[C@@H](C)C(=O)NCC(=O)N[C@@H](Cc2c[nH]cn2)C(=O)O)NC(=O)[C@H](C)NC(=O)[C@H](CCCCN)NC(=O)[C@H](Cc2ccccc2)NC(=O)[C@H](C)NC1=O [compound 444] (H-CDATCQFRKAIDDCAFKACMKQKKKEWKAGH-OH; disulfide 1-5, 14-19) | 1 to 100 |
| CC[C@H](C)[C@H](NC(=O)[C@H](C)NC(=O)[C@H](CCCCN)NC(=O)[C@H](CCCNC(=N)N)NC(=O)[C@H](Cc1ccccc1)NC(=O)[C@H](CCC(N)=O)NC(=O)[C@@H]1CSSC[C@H](N)C(=O)N[C@@H](CC(=O)O)C(=O)N[C@@H](C)C(=O)N[C@@H]([C@@H](C)O)C(=O)N1)C(=O)N[C@@H](CC(=O)O)C(=O)N[C@@H](CC(=O)O)C(=O)N[C@H]1CSSC[C@@H](C(=O)N[C@@H](CCSC)C(=O)N[C@@H](CCCCN)C(=O)N[C@@H](CCC(N)=O)C(=O)N[C@@H](CCCCN)C(=O)N[C@@H](CCCCN)C(=O)N[C@@H](CCCCN)C(=O)N[C@@H](CCC(=O)O)C(=O)N[C@@H](Cc2c[nH]c3ccccc23)C(=O)N[C@@H](CCCCN)C(=O)N[C@@H](C)C(=O)NCC(=O)N[C@@H](Cc2c[nH]cn2)C(=O)O)NC(=O)[C@H](C)NC(=O)[C@H](CCCCN)NC(=O)[C@H](Cc2ccccc2)NC(=O)[C@H](CCC(N)=O)NC(=O)[C@H](CCCNC(=N)N)NC(=O)[C@H](C)NC1=O [compound 447] (H-CDATCQFRKAIDDCARQFKACMKQKKKEWKAGH-OH; disulfide 1-5, 14-21) | 0.01 to 1 |
| CC[C@H](C)[C@H](NC(=O)[C@H](C)NC(=O)[C@H](CCCCN)NC(=O)[C@H](CCCNC(=N)N)NC(=O)[C@H](Cc1ccccc1)NC(=O)[C@H](CCC(N)=O)NC(=O)[C@@H]1CSSC[C@H](N)C(=O)N[C@@H](CC(=O)O)C(=O)N[C@@H](C)C(=O)N[C@@H]([C@@H](C)O)C(=O)N1)C(=O)N[C@@H](CC(=O)O)C(=O)N[C@@H](CC(=O)O)C(=O)N[C@H]1CSSC[C@@H](C(=O)N[C@@H](CCSC)C(=O)N[C@@H](CCCCN)C(=O)N[C@@H](CCC(N)=O)C(=O)N[C@@H](CCCCN)C(=O)N[C@@H](CCCCN)C(=O)N[C@@H](CCCCN)C(=O)N[C@@H](CCC(=O)O)C(=O)N[C@@H](Cc2c[nH]c3ccccc23)C(=O)N[C@@H](CCCCN)C(=O)N[C@@H](C)C(=O)NCC(=O)N[C@@H](Cc2c[nH]cn2)C(=O)O)NC(=O)[C@H](C)NC(=O)[C@H](CCCCN)NC(=O)[C@H](Cc2ccccc2)NC(=O)[C@H](Cc2ccc(O)cc2)NC(=O)[C@H](C)NC(=O)[C@H](CCC(N)=O)NC(=O)[C@H](CCCNC(=N)N)NC(=O)[C@H](C)NC1=O [compound 448] (H-CDATCQFRKAIDDCARQAYFKACMKQKKKEWKAGH-OH; disulfide 1-5, 14-23) | < 0.01 |
| CC[C@H](C)[C@H](NC(=O)[C@H](C)NC(=O)[C@H](CCCCN)NC(=O)[C@H](CCCNC(=N)N)NC(=O)[C@H](Cc1ccccc1)NC(=O)[C@H](CCC(N)=O)NC(=O)[C@@H]1CSSC[C@H](N)C(=O)N[C@@H](CC(=O)O)C(=O)N[C@@H](C)C(=O)N[C@@H]([C@@H](C)O)C(=O)N1)C(=O)N[C@@H](CC(=O)O)C(=O)N[C@@H](CC(=O)O)C(=O)N[C@H]1CSSC[C@@H](C(=O)N[C@@H](CCSC)C(=O)N[C@@H](CCCCN)C(=O)N[C@@H](CCC(N)=O)C(=O)N[C@@H](CCCCN)C(=O)N[C@@H](CCCCN)C(=O)N[C@@H](CCCCN)C(=O)N[C@@H](CCC(=O)O)C(=O)N[C@@H](Cc2c[nH]c3ccccc23)C(=O)N[C@@H](CCCCN)C(=O)N[C@@H](C)C(=O)NCC(=O)N[C@@H](Cc2c[nH]cn2)C(=O)O)NC(=O)[C@H](C)NC(=O)[C@H](CO)NC(=O)[C@H](Cc2c[nH]cn2)NC(=O)[C@H](Cc2ccc(O)cc2)NC(=O)[C@H](C)NC(=O)[C@H](CCC(N)=O)NC(=O)[C@H](CCCNC(=N)N)NC(=O)[C@H](C)NC1=O [compound 449] (H-CDATCQFRKAIDDCARQAYHSACMKQKKKEWKAGH-OH; disulfide 1-5, 14-23) | 1 to 100 |
| CC[C@H](C)[C@H](NC(=O)[C@H](C)NC(=O)[C@H](CCCCN)NC(=O)[C@H](CCCNC(=N)N)NC(=O)[C@H](Cc1ccccc1)NC(=O)[C@H](CCC(N)=O)NC(=O)[C@@H]1CSSC[C@H](N)C(=O)N[C@@H](CC(=O)O)C(=O)N[C@@H](C)C(=O)N[C@@H]([C@@H](C)O)C(=O)N1)C(=O)N[C@@H](CC(=O)O)C(=O)N[C@@H](CC(=O)O)C(=O)N[C@H]1CSSC[C@@H](C(=O)N[C@@H](CCSC)C(=O)N[C@@H](CCCCN)C(=O)N[C@@H](CCC(N)=O)C(=O)N[C@@H](CCCCN)C(=O)N[C@@H](CCCCN)C(=O)N[C@@H](CCCCN)C(=O)N[C@@H](CCC(=O)O)C(=O)N[C@@H](Cc2c[nH]c3ccccc23)C(=O)N[C@@H](CCCCN)C(=O)N[C@@H](Cc2c[nH]cn2)C(=O)O)NC(=O)[C@H](C)NC(=O)[C@H](CCCCN)NC(=O)[C@H](Cc2ccccc2)NC(=O)[C@H](CO)NC(=O)[C@H](Cc2c[nH]cn2)NC(=O)[C@H](Cc2ccc(O)cc2)NC(=O)[C@H](C)NC(=O)[C@H](CCC(N)=O)NC(=O)[C@H](CCCNC(=N)N)NC(=O)[C@H](C)NC1=O [compound 450] (H-CDATCQFRKAIDDCARQAYHSFKACMKQKKKEWKH-OH; disulfide 1-5, 14-25) | 1 to 100 |
| CC[C@H](C)[C@H](NC(=O)[C@H](C)NC(=O)[C@H](CCCCN)NC(=O)[C@H](CCCNC(=N)N)NC(=O)[C@H](Cc1ccccc1)NC(=O)[C@H](CCC(N)=O)NC(=O)[C@@H]1CSSC[C@H](N)C(=O)N[C@@H](CC(=O)O)C(=O)N[C@@H](C)C(=O)N[C@@H]([C@@H](C)O)C(=O)N1)C(=O)N[C@@H](CC(=O)O)C(=O)N[C@@H](CC(=O)O)C(=O)N[C@H]1CSSC[C@@H](C(=O)N[C@@H](CCSC)C(=O)N[C@@H](CCCCN)C(=O)N[C@@H](CCC(N)=O)C(=O)N[C@@H](CCCCN)C(=O)N[C@@H](CCCCN)C(=O)N[C@@H](CCCCN)C(=O)N[C@@H](CCC(=O)O)C(=O)N[C@@H](Cc2c[nH]c3ccccc23)C(=O)N[C@@H](CCCCN)C(=O)N[C@@H](C)C(=O)N[C@@H](Cc2c[nH]cn2)C(=O)O)NC(=O)[C@H](C)NC(=O)[C@H](CCCCN)NC(=O)[C@H](Cc2ccccc2)NC(=O)[C@H](CO)NC(=O)[C@H](Cc2c[nH]cn2)NC(=O)[C@H](Cc2ccc(O)cc2)NC(=O)[C@H](C)NC(=O)[C@H](CCC(N)=O)NC(=O)[C@H](CCCNC(=N)N)NC(=O)[C@H](C)NC1=O [compound 451] (H-CDATCQFRKAIDDCARQAYHSFKACMKQKKKEWKAH-OH; disulfide 1-5, 14-25) | 1 to 100 |
| ACDATCQFRKAIDDCQKQAHHSNVPGSVFKACMKQKKKEFKAG-NH2 (disulfide 2-6, 15-32) [compound 184] | 0.01 to 1 |
| CDATCQFRKAIDDCAGTARHSNVPGSVFKACMKQKKKEWKAG-NH2 (disulfide 1-5, 14-31) [compound 446] | 1 to 100 |
| CDATCQFRKAIDDCANKSWHSNVPGSVFKLCMKQKKKEWKAGH-NH2 (disulfide 1-5, 14-31) [compound 445] | > 100 |
